The structures appear in SMILES notation.

Here are results for four molecules from US6288059A, “Acylated hetero-alicyclic derivatives” (Sankyo Company, Limited, priority 1997, dated 2001).

One assay deals with T1, NK2 receptor (Cavia porcellus, UniProt Q64077).
T1 construct: A crude membrane fraction was prepared from the ileum of male Hartley guinea pigs; from tissue; host or cells: ileum of male Hartley guinea pigs, crude membrane fraction
T1 sequence (Q64077 1-402): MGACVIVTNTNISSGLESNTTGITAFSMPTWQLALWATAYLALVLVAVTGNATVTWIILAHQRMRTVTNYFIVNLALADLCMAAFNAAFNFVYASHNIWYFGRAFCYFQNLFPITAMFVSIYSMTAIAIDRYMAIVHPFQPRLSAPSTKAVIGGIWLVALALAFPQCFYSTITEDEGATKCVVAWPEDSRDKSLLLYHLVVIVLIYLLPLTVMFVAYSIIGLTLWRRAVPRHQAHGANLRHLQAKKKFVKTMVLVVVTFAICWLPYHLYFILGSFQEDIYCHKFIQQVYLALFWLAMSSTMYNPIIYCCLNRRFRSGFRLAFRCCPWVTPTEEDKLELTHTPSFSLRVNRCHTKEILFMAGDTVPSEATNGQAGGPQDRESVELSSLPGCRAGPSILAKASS
The assay is described as follows: NK2 Receptor Binding Test ([3H]-SR-48968, crude ileum membrane fraction). To be noted: [3H]-SR-48968 1 nM; guinea pig ileum membrane; room temperature, 30 minutes; read-out: IC50 (50% binding drug concentration) (converted). Also noted: species or system guinea pig (male Hartley). Here is the method: Test Example 2 NK2 Receptor Binding Test
(a) Preparation of crude ileum membrane fraction
A crude membrane fraction was prepared from the ileum of male Hartley guinea pigs. Namely, the guinea pigs were bled from the cava abdominalis under chloroform anaesthesia and the ileum was extracted immediately.
After the contents secreta and epithelium of the ilium had been scraped off using a glass slide, the extracted ileum was thinly cut in a buffer (1) (50 mM Tris-HCl, pH 7.4) and then homogenized in a buffer (2) [buffer (1) containing 120 mM sodium chloride and 5 mM potassium chloride] using a Polytron homogenizer.
The tissue mass was removed from the homogenate by filtration with a nylon mesh (50 μm) and the supernatant was centrifuged (30,000×g, 30 minutes, 4° C.).
The resultant pellet was resuspended in an ice-cooled buffer (3) [buffer (1) containing 10 mM EDTA and 300 mM potassium chloride], allowed to stand at 4° C. for 60 minutes and then washed centrifugally twice (30,000×g, 15 minutes, 4° C.).
The crude membrane fraction was preserved at -80° C. before use.
(b) Receptor Binding Test
To a mixed solution (250 μl) of the test compound and [^3 H]-SR.-48968 (Amasham Co., final concentration: 1 nM) (50 mM Tris-HCl, pH 7.4; 6 mM manganese chloride, 800 μg/ml BSA, 8 μg/ml chymostatin, 8 μg/ml leupeptin, 80 μg/ml bacitracin, 20 μg/ml phosphoramidon) was added the crude ileum membrane fraction solution (250 μl), followed by incubation at room temperature for 30 minutes.
After the reaction, a membrane ingredient was recovered on a GF/B glass fiber filter (Whatman Co.) using an automatic filtering device (Brandel Co.).
The glass filter was used after pretreatment with a 10% of polyethyleneimine solution for about 4 hours so as to inhibit non-specificbinding as much as possible.
The membrane ingredient-recovered filter was transferred to a mini-plastic vial containing a pico flow (4 ml) and the radioactivity was measured using a liquid scintillation counter (Beckman Co., LSC3500) to determine the 50% binding drug concentration (IC50).

In another assay the test system is NK2 receptors. The note with it: relative to SR48968; Tachykinin in Health and Disease abstract, 1997; cited from earlier work.

Regarding `O=C(C1CCCC1)N1CCOC(CCN2CCC3(CC2)c2ccccc2C[S+]3[O-])(c2ccc(Cl)c(Cl)c2)C1` [Example 3, 1-{2-[(2R)-(3,4-dichlorophenyl)-4-(cyclopentanecarbonyl)morpholin-2-yl]ethyl}spiro[benzo[c]thiophene-1(3H),4'-piperidine]-(2S)-oxide], the IC50 at NK2 receptor was 1.58 nM.

For the molecule `O=C(C1CC1)N1CCOC(CCN2CCC3(CC2)c2ccccc2C[S+]3[O-])(c2ccc(Cl)c(Cl)c2)C1` [Example 2, 1-{2-[(2R)-(3,4-dichlorophenyl)-4-(cyclopropanecarbonyl)morpholin-2-yl]ethyl}spiro[benzo[c]thiophene-1(3H),4'-piperidine]-(2S)-oxide], at NK2 receptor, the IC50 is 1.39 nM.

`CN(C)C(=O)NC1(c2ccccc2)CCN(CC[C@@]2(c3ccc(F)c(F)c3)CN(C(=O)c3ccccc3)CCO2)CC1` [SR144190]: the “NK2 receptor-selective antagonistic activity compared with SR.48968” value in the assay on NK2 receptors is given as “more potent than that of SR.48968”.

Take `O=C(C1CCC1)N1CCOC(CCN2CCC3(CC2)c2ccccc2C[S+]3[O-])(c2ccc(Cl)c(Cl)c2)C1` [Example 1, 1-{2-[(2R)-(3,4-dichlorophenyl)-4-(cyclobutanecarbonyl)morpholin-2-yl]ethyl}spiro[benzo[c]thiophene-1(3H),4'-piperidine]-(2S)-oxide]: the IC50 at NK2 receptor was 1.67 nM.
